In data set [1] the test system is FOSCC cell lines (SCCF1, SCCF2, SCCF3). Format: cell-based, cat. Conditions: MTT assay.
Data set [2] deals with Bcl11b. Format: cell-based, cat.
Data set [3] concerns VEGF. Format: cell-based, cat.
In data set [4] the test system is canine glioblastoma J3T cells. The experiment in a line: cells. Format: cell-based, dog. The following applies: Canis lupus familiaris, 72 h, read-out: mean IC50.
Data set [5] deals with tubulin. It counts as cell-based, dog.
Details of data set [6]: species or system horses (Thoroughbreds). Conditions: in vivo.
The conditions of data set [7]: dog, in vivo; cited from earlier work.
Data set [8] is classed as in vivo, dog. Conditions: intravenous bolus 2 mg/kg; 2 dogs.
The format of data set [9] is in vivo, cat. The following applies: cats with CHF that received pimobendan; −561 in cats that did not; P = 0.045.
For data set [10], the system named is Ixodes scapularis. It counts as in vivo, dog.
In data set [11] the test system is Borrelia burgdorferi. Format: in vivo, dog. The following applies: single oral dose; negative antibody, PCR, and culture.
The test system of data set [12] is Anaplasma phagocytophilum. It counts as in vivo, dog. The following applies: all sarolaner‐treated dogs.
Data set [13] is classed as in vivo, dog.
For data set [14] the following is noted: in vivo; cited from earlier work.

For the compound `Cc1nc(Nc2ncc(C(=O)Nc3c(C)cccc3Cl)s2)cc(N2CCN(CCO)CC2)n1` [Dasatinib, dasatinib], the cell viability result in data set [1] is “lowered cell viability”. Moreover, the “activation (phosphorylation) of Bcl11b” value in data set [2] is reported as “inhibited activation of Bcl11b”. In addition, in [3], the VEGF production result is recorded as “suppressed VEGF production”.

What is called IC50 is the point on the concentration scale where inhibition reaches its midpoint. As to `COC(=O)Nc1nc2ccc(Sc3ccccc3)cc2[nH]1` [FBZ, fenbendazole], the IC50 in data set [4] was found to be 550 nM. Besides, the “tubulin depolymerization versus untreated control” value in [5] was “increased depolymerization of tubulin”.

As for `COc1ccc2[nH]c([S+]([O-])Cc3ncc(C)c(OC)c3C)nc2c1` (stereo not drawn) [OME, omeprazole], the gastric ulcer scores entry in data set [6] was “significantly decreased”.

With `N.N.[Cl][Pt][Cl]` [cisplatin], in [7], the “reported MST for invasive thyroid carcinoma” value is given as 98 days.

Take `CCN(CC)CC(=O)Nc1c(C)cccc1C` [lidocaine]: the “response of polymorphic ventricular tachycardia” value in data set [8] is given as “no improvement was found”.

Regarding `COc1ccc(-c2nc3ccc(C4=NNC(=O)CC4C)cc3[nH]2)cc1` (stereo not drawn) [pimobendan], the “change in NT‐proBNP concentration from admission to discharge (median)” value in [9] was -821 pmol/L.

Turning to `CS(=O)(=O)CC(=O)N1CC2(C1)OCc1cc(C3=NO[C@@](c4cc(Cl)c(F)c(Cl)c4)(C(F)(F)F)C3)ccc12` [sarolaner], in data set [10] (2 mg/kg oral), the “percent reduction in mean live tick counts, Day 29, treated 28 days prior” value is on record as 90.9%; the “percent reduction in mean live tick counts, Day 30, treated 21 days prior” value is 100%; the “percent reduction in mean live tick counts, Day 30, treated 28 days prior” value was 97.1%; the “percent reduction in mean live tick counts, Day 33, treated 21 days prior” value came to 100%. Further, the “percent reduction in mean live tick counts, Day 33, treated 28 days prior” value in [10] (2 mg/kg oral) amounted to 100%. Moreover, the “adverse reactions to treatment” value in data set [10] (dog, in vivo) is recorded as “no adverse reactions”. Further, the “transmission of B. burgdorferi to dogs infested 21 or 28 days after treatment” value in [11] is on record as “prevented transmission”. Moreover, the “A. phagocytophilum antibody in treated dogs” value in data set [12] is given as “negative antibody”.

For the compound Darbepoetin alfa, in [13] (1/34 dogs), the “possible PRCA” value worked out at 2.9%. In data set [13] (dog, in vivo), the “dogs with potential adverse events” value was 19/34 and the “longest dosing interval at which a response was sustained” value is recorded as at most 21 days. For the same compound, the “responders (HCT of 30% achieved)” value in [13] (median starting dose 0.5 mcg/kg, every 7 days in 31/34 dogs) is “Twenty‐nine of 34 dogs were responders”. In addition, the “median time to response” value in data set [13] (range 6 ‐ 106) is on record as 28 days. The “median survival following initiation of therapy” value in data set [13] (range 30 – 546) is on record as 118 days. Besides, the “cats that responded, of 25” value in data set [14] is 14 cats.
